Laboratory results taken from PMC11999280, “Design and screening of novel endosomal escape compounds that enhance functional delivery of oligonucleotides in vitro” (Molecular Therapy. Nucleic Acids, 2025).

Tests used:
Type in all cases: cell-based
[1] = test system: mCherry-GAL9 expressing HEK293 cells; assay: GAL9 recruitment assay, HEK293; conditions: calculated mean from >3 independent exp.
Description: (§1) Experiments assessing GAL9 localization as an indicator for endosomal remodeling were performed as previously described[15] using 8× stablemCherry-GAL9 expressing cell lines, SHSY5Y, U2OS, 16HBE, NCI-H358, HuH7, HepG2, HEK293, and HeLa. For mCherry-GAL9 recruitment, 3,000 or 6,500 cells/well (depending upon cell line) were seeded into 384-well CellCarrier Ultra plates 24 h prior to treatment (PerkinElmer, catalog no. 6007558). An Echo 655T acoustic dispenser (Labcyte) was used for EEE dose-response preparation by transferring to the cell plate. At assay endpoints, cells were PBS washed, 4% paraformaldehyde fixed at room temperature […] (VWR, catalog no. 9713.1000), and nuclei stained with PBS +1 μg/mL Hoechst 33342 (Thermo Fisher Scientific, catalog no. H21492).
(§2) Imaging was performed using a spinning-disk confocal microscope (Yokogawa: CV8000) with a ×20w objective (numerical aperture 1.0). Cells and mCherry-GAL9 structure identification and quantification were done using Columbus image-analysis software (PerkinElmer version 2.9.0). Data processing was done using Spotfire (Tibco version 11.4) and Prism (GraphPad version 9.1.0). Image panels were assembled using the FigureJ plugin for FIJI.[43] All mCherry-GAL9 experiments were performed three times (N = 3) with duplicated wells per treatment (n = 2).

[2] = test system: mCherry-GAL9 expressing SHSY5Y cells; assay: GAL9 recruitment assay, SHSY5Y; conditions: calculated mean from >3 independent exp.
Description: as §1, §2

[3] = test system: mCherry-GAL9 expressing HuH7 cells; assay: GAL9 recruitment assay, HuH7; conditions: calculated mean from >3 independent exp.
Description: as §1, §2

[4] = test system: mCherry-GAL9 expressing NCI-H358 cells; assay: GAL9 recruitment assay, NCI-H358; conditions: calculated mean from >3 independent exp.
Description: as §1, §2

[5] = test system: mCherry-GAL9 expressing HeLa cells; assay: GAL9 recruitment assay, HeLa; conditions: calculated mean from >3 independent exp.
Description: as §1, §2

[6] = test system: mCherry-GAL9 expressing U2OS cells; assay: GAL9 recruitment assay, U2OS; conditions: calculated mean from >3 independent exp.
Description: as §1, §2

[7] = test system: mCherry-GAL9 expressing 16HBE cells; assay: GAL9 recruitment assay, 16HBE; conditions: calculated mean from >3 independent exp.
Description: as §1, §2

[8] = test system: HeLa_Luc705 cells (pLuc/705 splice-switching reporter); assay: Functional 705-SSO delivery, luciferase splice-switching assay; conditions: HeLa-Luc705 + 2 µM SSO; EEE 2.5 - 3 µM; mean from >3 independent experiments
Text: Therefore, next, we functionally screened the SSO delivery in the HeLa_Luc705 reporter cell line. HeLa_Luc705 carries a pLuc/705 splice-switching reporter luciferase gene interrupted by a mutated β-globin intron, which creates a preferentially used cryptic 5′ splice site leading to aberrant splicing. Functional SSO delivery masks the cryptic site, redirecting the splicing machinery to the right splicing site, allowing the measurement of luciferase expression (Figure S1).[25]^,[26]^,[27]^,[28] We used SSO transfection with LF2000 as transfection control and the previously published endosomal escape enhancer CMP05 (here, EEE2) as positive control.[15]
For the assessment of functional SSO therapeutics, a HeLa_Luc705 cell line was grown in DMEM media supplemented with 10% fetal bovine serum (FBS). For most treatments, 10,000 cells/well were seeded in a 96-well plate, 24 h pre-incubated with 1- to 2-μM oligonucleotide, and then treated at the described EEE concentration. At 24 h post-treatment, cells were PBS rinsed and collected for further analysis (treatments and incubation times changed accordingly to the experiment design). Luciferase readout was performed as previously described,[15] using a GloMax 96-well plate microplate luminometer (Promega) immediately after adding 30 μL auto-injected luciferin substrate (Promega Firefly Luciferase Assay System; Thermo Scientific, catalog no. 16174) in a white-walled 96-well plate containing 30 μL 0.1% Triton X-100 (Sigma-Aldrich) cell lysed. Photon exposure time and delay were set to 10 and 2 s after injection. LF2000 was used as the transfection reagent control (Thermo Scientific, catalog no. 11668019). For EEE experiments using 1 or 2 μM SSOs, the control was prepared using lipofection with 100–200 nM SSO; this is to avoid complex induced cell toxicity.
705-SSO was purchased from and synthesized by Integrated DNA Technologies. The 705-SSO sequence was previously published, containing 2′-O-methylated bases and only phosphorothioate-saturated backbone linkages were included.[15] The 705-SSO was high-performance liquid chromatography purified, shipped, and stored in IDTE buffer (10 mM Tris, 0.1 mM EDTA).

[9] = test system: mCherry-GAL9 expressing HepG2 cells; assay: GAL9 recruitment assay, HepG2; conditions: calculated mean from >3 independent exp.
Description: as §1, §2

## COc1nn(C2CCN(C)CC2)cc1Nc1ncc(Cl)c(-n2ccc3c(C#N)cccc32)n1 [EEE17]
[1]; EEE 0.31 µM
  Gal9 response compared to reference: 0.023
[1]; EEE 0.62 µM
  Gal9 response compared to reference: 0.022
[1]; EEE 1.25 µM
  Gal9 response compared to reference: 0.019
[1]; EEE 2.5 µM
  Gal9 response compared to reference: 0.019
[1]; EEE 5 µM
  Gal9 response compared to reference: 0.096
[1]; EEE 10 µM
  Gal9 response compared to reference: 0.437
[2]; EEE 0.31 µM
  Gal9 response compared to reference: 0.014
[2]; EEE 0.62 µM
  Gal9 response compared to reference: 0.013
[2]; EEE 1.25 µM
  Gal9 response compared to reference: 0.012
[2]; EEE 2.5 µM
  Gal9 response compared to reference: 0.014
[2]; EEE 5 µM
  Gal9 response compared to reference: 0.176
[2]; EEE 10 µM
  Gal9 response compared to reference: 0.610
[3]; EEE 0.31 µM
  Gal9 response compared to reference: 0.007
[3]; EEE 0.62 µM
  Gal9 response compared to reference: 0.007
[3]; EEE 1.25 µM
  Gal9 response compared to reference: 0.010
[3]; EEE 2.5 µM
  Gal9 response compared to reference: 0.017
[3]; EEE 5 µM
  Gal9 response compared to reference: 0.021
[3]; EEE 10 µM
  Gal9 response compared to reference: 0.132
[4]; EEE 0.31 µM
  Gal9 response compared to reference: 0.016
[4]; EEE 0.62 µM
  Gal9 response compared to reference: 0.019
[4]; EEE 1.25 µM
  Gal9 response compared to reference: 0.014
[4]; EEE 2.5 µM
  Gal9 response compared to reference: 0.018
[4]; EEE 5 µM
  Gal9 response compared to reference: 0.028
[4]; EEE 10 µM
  Gal9 response compared to reference: 0.303
[5]; EEE 0.31 µM
  Gal9 response compared to reference: 0.005
[5]; EEE 0.62 µM
  Gal9 response compared to reference: 0.004
[5]; EEE 1.25 µM
  Gal9 response compared to reference: 0.004
[5]; EEE 2.5 µM
  Gal9 response compared to reference: 0.004
[5]; EEE 5 µM
  Gal9 response compared to reference: 0.012
[5]; EEE 10 µM
  Gal9 response compared to reference: 0.201
[6]; EEE 0.31 µM
  Gal9 response compared to reference: 0.012
[6]; EEE 0.62 µM
  Gal9 response compared to reference: 0.011
[6]; EEE 1.25 µM
  Gal9 response compared to reference: 0.013
[6]; EEE 2.5 µM
  Gal9 response compared to reference: 0.015
[6]; EEE 5 µM
  Gal9 response compared to reference: 0.021
[6]; EEE 10 µM
  Gal9 response compared to reference: 0.155
[7]; EEE 0.31 µM
  Gal9 response compared to reference: 0.008
[7]; EEE 0.62 µM
  Gal9 response compared to reference: 0.010
[7]; EEE 1.25 µM
  Gal9 response compared to reference: 0.008
[7]; EEE 2.5 µM
  Gal9 response compared to reference: 0.010
[7]; EEE 5 µM
  Gal9 response compared to reference: 0.048
[7]; EEE 10 µM
  Gal9 response compared to reference: 0.488
[8]
  Luciferase expression compared to reference: 0.752
[9]; EEE 0.31 µM
  Gal9 response compared to reference: 0.009
[9]; EEE 0.62 µM
  Gal9 response compared to reference: 0.008
[9]; EEE 1.25 µM
  Gal9 response compared to reference: 0.008
[9]; EEE 2.5 µM
  Gal9 response compared to reference: 0.011
[9]; EEE 5 µM
  Gal9 response compared to reference: 0.010
[9]; EEE 10 µM
  Gal9 response compared to reference: 0.030

## CCN1CCC(n2cc(Nc3ncc(F)c(-n4ccc5c(C#N)cccc54)n3)c(OC)n2)CC1 [EEE11]
[1]; EEE 0.31 µM
  Gal9 response compared to reference: 0.027
[1]; EEE 0.62 µM
  Gal9 response compared to reference: 0.022
[1]; EEE 1.25 µM
  Gal9 response compared to reference: 0.106
[1]; EEE 2.5 µM
  Gal9 response compared to reference: 0.438
[1]; EEE 5 µM
  Gal9 response compared to reference: 0.779
[1]; EEE 10 µM
  Gal9 response compared to reference: 0.493
[2]; EEE 0.31 µM
  Gal9 response compared to reference: 0.014
[2]; EEE 0.62 µM
  Gal9 response compared to reference: 0.018
[2]; EEE 1.25 µM
  Gal9 response compared to reference: 0.385
[2]; EEE 2.5 µM
  Gal9 response compared to reference: 0.801
[2]; EEE 5 µM
  Gal9 response compared to reference: 0.691
[2]; EEE 10 µM
  Gal9 response compared to reference: 0.469
[3]; EEE 0.31 µM
  Gal9 response compared to reference: 0.009
[3]; EEE 0.62 µM
  Gal9 response compared to reference: 0.008
[3]; EEE 1.25 µM
  Gal9 response compared to reference: 0.023
[3]; EEE 2.5 µM
  Gal9 response compared to reference: 0.154
[3]; EEE 5 µM
  Gal9 response compared to reference: 0.258
[3]; EEE 10 µM
  Gal9 response compared to reference: 0.222
[4]; EEE 0.31 µM
  Gal9 response compared to reference: 0.016
[4]; EEE 0.62 µM
  Gal9 response compared to reference: 0.020
[4]; EEE 1.25 µM
  Gal9 response compared to reference: 0.036
[4]; EEE 2.5 µM
  Gal9 response compared to reference: 0.143
[4]; EEE 5 µM
  Gal9 response compared to reference: 0.614
[4]; EEE 10 µM
  Gal9 response compared to reference: 0.576
[5]; EEE 0.31 µM
  Gal9 response compared to reference: 0.005
[5]; EEE 0.62 µM
  Gal9 response compared to reference: 0.004
[5]; EEE 1.25 µM
  Gal9 response compared to reference: 0.013
[5]; EEE 2.5 µM
  Gal9 response compared to reference: 0.253
[5]; EEE 5 µM
  Gal9 response compared to reference: 0.553
[5]; EEE 10 µM
  Gal9 response compared to reference: 0.370
[6]; EEE 0.31 µM
  Gal9 response compared to reference: 0.012
[6]; EEE 0.62 µM
  Gal9 response compared to reference: 0.015
[6]; EEE 1.25 µM
  Gal9 response compared to reference: 0.018
[6]; EEE 2.5 µM
  Gal9 response compared to reference: 0.048
[6]; EEE 5 µM
  Gal9 response compared to reference: 0.317
[6]; EEE 10 µM
  Gal9 response compared to reference: 0.483
[7]; EEE 0.31 µM
  Gal9 response compared to reference: 0.013
[7]; EEE 0.62 µM
  Gal9 response compared to reference: 0.013
[7]; EEE 1.25 µM
  Gal9 response compared to reference: 0.056
[7]; EEE 2.5 µM
  Gal9 response compared to reference: 0.167
[7]; EEE 5 µM
  Gal9 response compared to reference: 0.507
[7]; EEE 10 µM
  Gal9 response compared to reference: 0.623
[8]
  Luciferase expression compared to reference: 2.093
[9]; EEE 0.31 µM
  Gal9 response compared to reference: 0.009
[9]; EEE 0.62 µM
  Gal9 response compared to reference: 0.008
[9]; EEE 1.25 µM
  Gal9 response compared to reference: 0.007
[9]; EEE 2.5 µM
  Gal9 response compared to reference: 0.019
[9]; EEE 5 µM
  Gal9 response compared to reference: 0.163
[9]; EEE 10 µM
  Gal9 response compared to reference: 0.568
